This is an account of results in US8802405B2, “Ethanologenic Clostridium species, Clostridium coskatii” (Coskata, Inc., priority 2010, dated 2014).

For series [1] the following is noted: at 37° C.; cited from earlier work.
Series [2] concerns C. coskatii PS02. As to the kind of experiment: Antibiotic susceptibility, growth at 100 μg/mL antibiotic. Format: cell-based, Clostridium coskatii (PS02). The following applies: Acetogen C3 media; for Antibiotic susceptibility pattern (+ indicates growth): C. coskatii PS02, antibiotic 100 μg/ml, 37% CO, 35% H2, 22% CO2, balance N2, OD600; for Resistance to antibiotic (in words): Clostridium coskatii (PS02), 100 μg/mL. As to the method: (§1) The antibiotic susceptibility of Clostridium coskatii (PS02) was evaluated in Acetogen C3 media against 17 antibiotics at a concentration of 100 μg/mL (Table G). Clostridium coskatii (PS02) was resistant to erythromycin, nalidixic acid, spectinomycin, colistin, penicillin, streptomycin, and chloramphenicol. Three antibiotics differentiated C. coskatii from three ethanologenic Clostridia: C. ljungdahlii PETC, C. ragsgalei, and C. autoethanogenum. These differentiating antibiotics included, erythromycin, carbenicillin, and chloramphenicol (Table J).
(§2) Antibiotic susceptibility was based upon growth in media containing 100 μg/mL of each antibiotic. The atmosphere was 37% CO, 35% H2, 22% CO2 with a balance gas of N2. A positive growth response was recorded for an OD600 exceeding 0.2 AU.

Series [3] deals with C. autoethangenum. Described as above. To be noted: antibiotic 100 μg/ml, 37% CO, 35% H2, 22% CO2, balance N2, OD600. Format: cell-based, Clostridium autoethanogenum. On the procedure: as §1, §2
The subject of series [4] is C. ragsdalei. Described as above. To be noted: antibiotic 100 μg/ml, 37% CO, 35% H2, 22% CO2, balance N2, OD600. Format: cell-based, Clostridium ragsdalei. As to the method: as §1, §2
The subject of series [5] is C. ljungdahlii PETC. The description is as above. It is filed as cell-based, Clostridium ljungdahlii PETC. To be noted: for Antibiotic susceptibility pattern (+ indicates growth): C. ljungdahlii PETC, antibiotic 100 μg/ml, 37% CO, 35% H2, 22% CO2, balance N2, OD600; for Resistance to antibiotic (in words): Clostridium ljungdahlii PETC, 100 μg/mL. On the procedure:
as §1, §2

Series [6] concerns C. ljungdahlii PETC. As to the kind of experiment: Growth on various substrates (carbon substrate utilization). It is filed as cell-based, Clostridium ljungdahlii PETC. To be noted: for Growth on substrate: 1 g/L carbon source, N2:CO2 (80%:20%), OD600. On the procedure:
(§3) Growth was measured spectrophotometrically at 600 nm (Spectronic 20D; Milton Roy). Carbon substrate utilization was based upon growth after consecutive transfers in media containing 1 g/L of each carbon source. For carbon substrates, screening was performed under an atmosphere of N2: CO2 (80%:20%). A positive growth response was recorded for an OD600 exceeding 0.2 AU. For citrate, additional ^13C-labeled isotope experiments were conducted to determine the nature of products by analysis of final 0.2 μm-filtered product samples by carbon NMR using a Bruker UltraShield Avance 400 MHz nuclear magnetic resonance spectrometer.

In series [7] the test system is C. coskatii PS02. The description is as above. Format: cell-based, Clostridium coskatii (PS02). To be noted: for Growth on substrate: C. coskatii PS02, 1 g/L carbon source, N2:CO2 (80%:20%), OD600; for Chemoorganotrophic growth on substrate (in words): Clostridium coskatii (PS02). As to the method:
as §3

In series [8] the test system is C. ragsdalei. The series is described as above. Format: cell-based, Clostridium ragsdalei. The following applies: for Growth on substrate: 1 g/L carbon source, N2:CO2 (80%:20%), OD600. As to the method: as §3
The subject of series [9] is C. coskatii PS02. The series is described as above. Format: cell-based. To be noted: Clostridium coskatii (PS02); absence of yeast extract.
Series [10] has as its system C. autoethangenum. The series is described as above. It is filed as cell-based, Clostridium autoethanogenum. The following applies: for Growth on substrate: C. autoethangenum, 1 g/L carbon source, N2:CO2 (80%:20%), OD600. As to the method: as §3
The subject of series [11] is Clostridium coskatii (PS02).
The subject of series [12] is Clostridium coskatii (PS02). The source says: In general, fermentation will be allowed to proceed until a desired level of product such as ethanol is produced in the culture media. Typically, this level of ethanol is in the range of at least 15 grams/liter of culture medium to 50 grams/liter, with a level of at least 30 grams/liter being preferable. […] In addition, continuous culture techniques exist which allow the continual replenishment of fresh culture medium with concurrent removal of used medium, including any liquid products therein (i.e. the chemostat mode).
This is another data set of the same source.

Usually pKa stands for the pH at which an ionisable group is half protonated.

Take `O=S(=O)(O)CCN1CCN(CCS(=O)(=O)O)CC1` [PIPES, piperazine-N,N′-bis(2-ethanesulfonic acid]: the pKa in [1] is given as 6.66.

Consider Colistin, for which the “Antibiotic susceptibility pattern (+ indicates growth)” value (“Antibiotic susceptibility pattern” below) in series [2], in series [3], in series [4] and in [5] was “+ (+ indicates growth)” in each case. For the same compound, the “Resistance to antibiotic (in words)” value in [2] is on record as “resistant”.

`O=C(N[C@H](CO)[C@H](O)c1ccc([N+](=O)[O-])cc1)C(Cl)Cl` [Chloramphenicol]: in series [2], the “Antibiotic susceptibility pattern” value is given as “+ (+ indicates growth)” and the “Resistance to antibiotic (in words)” value is reported as “resistant”.

For the compound `CN[C@@H]1[C@H](O)[C@H](NC)[C@H]2O[C@@]3(O)C(=O)C[C@@H](C)O[C@H]3O[C@@H]2[C@H]1O` [Spectinomycin], the “Antibiotic susceptibility pattern” value in [2], in series [3], in series [4] and in [5] was “+ (+ indicates growth)” each time. In addition, the “Resistance to antibiotic (in words)” value in series [2] is on record as “resistant”.

For `CC[C@H]1OC(=O)[C@H](C)[C@@H](O[C@H]2C[C@@](C)(OC)[C@@H](O)[C@H](C)O2)[C@H](C)[C@@H](O[C@@H]2O[C@H](C)C[C@H](N(C)C)[C@H]2O)[C@](C)(O)C[C@@H](C)C(=O)[C@H](C)[C@@H](O)[C@]1(C)O` [Erythromycin], in series [2], the “Antibiotic susceptibility pattern” value is given as “+ (+ indicates growth)” and the “Resistance to antibiotic (in words)” value is “resistant”. Further, in series [5], the “Antibiotic susceptibility pattern” value is “+ (+ indicates growth)” and the “Resistance to antibiotic (in words)” value is reported as “Resistance”.

Penicillin: the “Antibiotic susceptibility pattern” value in series [2], in series [3], in series [4] and in series [5] was “+ (+ indicates growth)” each time. Also, in [2], the “Resistance to antibiotic (in words)” value is “resistant”.

For `[C-]#[O+]` [CO], the Growth on substrate result in [6], in series [7], in series [8] and in [10] was “+ (A positive growth response was recorded for an OD600 exceeding 0.2 AU)” in each case. Also, the “Chemolithoautotrophic growth (in words)” value in [9] was “occurred”.

Regarding `CC(=O)O` [acetic acid], the “Concentration of undissociated acetic acid at which cell growth was significantly inhibited” value in series [11] is listed as “exceeded 50 mM”.

As to `CCn1cc(C(=O)O)c(=O)c2ccc(C)nc21` [Nalidixic acid], the “Antibiotic susceptibility pattern” value in [2], in [3], in [4] and in [5] was “+ (+ indicates growth)” in each case. Besides, the “Resistance to antibiotic (in words)” value in series [2] is “resistant”.

For the compound `O=S(=O)(O)CCN1CCOCC1` [MES, 2-(N-morpholino)ethanesulfonic acid], the pKa in series [1] was 5.97.

Regarding `[H]/N=C(/N)N[C@H]1[C@H](O)[C@@H](O)[C@H](O[C@@H]2O[C@@H](C)[C@](O)(C=O)[C@H]2O[C@@H]2O[C@@H](CO)[C@H](O)[C@@H](O)[C@@H]2NC)[C@@H](N/C(N)=N\[H])[C@@H]1O` [Streptomycin], the “Antibiotic susceptibility pattern” value in [2], in series [3], in series [4] and in series [5] was “+ (+ indicates growth)” each time. Also, the “Resistance to antibiotic (in words)” value in series [2] was “resistant”.

With `CC1(C)S[C@@H]2[C@H](NC(=O)C(C(=O)O)c3ccccc3)C(=O)N2[C@H]1C(=O)O` (stereo partly drawn) [Carbenicillin], the “Antibiotic susceptibility pattern” value in series [2] and in series [5] was “+ (+ indicates growth)” throughout. In addition, the “Resistance to antibiotic (in words)” value in series [2] and in series [5] was “Resistance” in each case.

Turning to Tris(hydroxymethyl)aminomethane, the pKa in series [1] is recorded as 7.72.

With `OCc1ccccc1O[C@@H]1O[C@H](CO)[C@@H](O)[C@H](O)[C@H]1O` [Salicin], the Growth on substrate entry in [6], in series [7], in [8] and in [10] was “+ (A positive growth response was recorded for an OD600 exceeding 0.2 AU)” each time. Moreover, in series [7], the “Chemoorganotrophic growth on substrate (in words)” value (shortened to “Chemoorganotrophic growth”) was “growth was observed”.

On to `O=C(O)C1=C[C@@H](O)[C@@H](O)[C@H](O)C1` [Shikimic acid], for which the Growth on substrate entry in series [6], in [7], in series [8] and in series [10] was “+ (A positive growth response was recorded for an OD600 exceeding 0.2 AU)” throughout. Moreover, the “Chemoorganotrophic growth” value in series [7] is listed as “growth was observed”.

For the compound `N[C@@H](Cc1c[nH]cn1)C(=O)O` [Histidine], the Growth on substrate entry in [6], in series [7] and in series [10] was “+ (A positive growth response was recorded for an OD600 exceeding 0.2 AU)” each time. Besides, the “Chemoorganotrophic growth” value in [7] is “growth was observed”. Besides, the “Growth on substrate (in words)” value in series [8] is listed as “inability”.

As for `O=C(O)CC(O)(CC(=O)O)C(=O)O` [Na-Citrate], the “Growth on substrate (in words)” value in series [6], in series [8] and in [10] (C. autoethanogenum) was “inability” in each case. For the same compound, in series [7], the Growth on substrate entry is given as “+ (A positive growth response was recorded for an OD600 exceeding 0.2 AU)”. Besides, the “Chemoorganotrophic growth” value in series [7] was “growth was observed”.

On to `CCO` [Ethanol], for which the Growth on substrate result in series [6], in [7], in [8] and in series [10] was “+ (A positive growth response was recorded for an OD600 exceeding 0.2 AU)” throughout. Further, the “Ethanol concentration in which the organism remains viable and will grow” value in series [12] is “at least 60 grams/liter”.
